Test results from paper PMC3411647 (PLoS ONE, 2012).

Experiments:
[1] = biological target: T1, H3R (Cavia porcellus, UniProt Q9JI35); assay: Guinea-pig ileum bioassay, inhibition of electrically induced twitch
T1 construct: from tissue; host or cells: guinea-pig ileum segments
Experimental: Each point is the mean ± s.e.m. of three to six separate experiments.
The procedure used was as described previously. Adult male guinea pigs (300–500 g) were killed by cervical dislocation. The ileum was removed at a point 20 cm from the caecum and flushed with and placed in modified K–H buffer of following composition: 118 mM NaCl, 5.9 mM KCl, 1.2 mM CaCl2, 1.2 mM MgSO4, 1 mM Na2HPO4, 25 mM NaHCO3 and 10 mM D-glucose. Ileum segments (2.5–3 cm) were suspended in 20 ml organ baths containing K–H buffer maintained at 37°C and gassed with 95% O2/5% CO2. Contractile activity under stimulation (rectangular pulses of 15 V, 0.5 ms, and 0.1 Hz) was recorded using isometric transducers (Grass FTO3). […] Mepyramine ([…]) and famotidine ([…]) (Sigma-Aldrich, St. Louis, MO) were added to the K–H buffer to block postsynaptic H1 and presynaptic H2 receptors, respectively.

[2] = biological target: T2, H3R (Homo sapiens, UniProt Q9Y5N1); assay: CRE-driven luciferase reporter gene assay in HEK-293 cells stably expressing hH3R; format: cell-based
T2 construct: expressed in transfected cells
T2 sequence (Q9Y5N1 whole entry): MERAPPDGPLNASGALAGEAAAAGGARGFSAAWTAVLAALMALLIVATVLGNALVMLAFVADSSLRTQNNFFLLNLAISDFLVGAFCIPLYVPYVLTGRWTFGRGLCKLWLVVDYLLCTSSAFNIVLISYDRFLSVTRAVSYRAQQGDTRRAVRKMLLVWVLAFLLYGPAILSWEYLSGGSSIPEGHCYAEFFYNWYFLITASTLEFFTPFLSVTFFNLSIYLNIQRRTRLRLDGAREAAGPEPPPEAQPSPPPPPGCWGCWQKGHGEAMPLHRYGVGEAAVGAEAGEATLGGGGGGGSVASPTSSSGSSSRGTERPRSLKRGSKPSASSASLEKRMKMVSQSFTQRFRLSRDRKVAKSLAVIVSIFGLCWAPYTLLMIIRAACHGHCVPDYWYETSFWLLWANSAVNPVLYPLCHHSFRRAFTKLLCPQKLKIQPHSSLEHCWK
Experimental: A, Concentration inhibition curve of luciferase activity induced by ZEL-H16 with forskolin stimulation. […] C. […] The presented data points are the mean ±SE of triplicate values from a single experiment and are representative of three to six separate experiments (*p<0.05; **p<0.01).
(§1) Luciferase activity was detected using a firefly luciferase kit (Promega, Madison, WI). When required, cells were treated overnight with or without PTX (100 ng/ml) in serum-free DMEM before the experiment.

[3] = biological target: T3, human histamine H3 receptor (Homo sapiens, UniProt Q9Y5N1); assay: Competitive/saturation binding with [3H]N-α-methylhistamine, H3R/HEK-293 cell membranes
T3 construct: expressed in transfected cells
T3 sequence (Q9Y5N1 whole entry): as above
Experimental: Figure 4 Competition binding experiments with [^3H]-N-α-methylhistamine. […] The presented data are the means ±SE of values from a single experiment performed in duplicate and are representative of three to six separate experiments.
HEK-293 cells stably expressing H3R were harvested and resuspended in ice-cold 50 mM Tris-HCl (pH 7.4) containing a complete protease inhibitor cocktail tablet and mixed by inverting. The cell pellet was homogenized with a Polytron PT 1200 set at 4000 rpm and centrifuged at 1,000 g for 5 min. The supernatant was then centrifuged twice at 50,000 g for 30 min at 4°C. Finally, the resulting pellet was gently suspended in 50 mM Tris-HCl (pH 7.4) buffer and the membrane concentration was determined using Bio-Rad protein assays.
The membranes (50 µg of protein) were incubated with [^3H] N-α-methylhistamine at various concentrations (from 0.03 nM to 50 nM) for saturation binding assays. For competitive binding assays, the membranes (50 µg of protein) were incubated with 10 nM [^3H] N-α-methylhistamine for recombinant hH3R or 2nM [^3H] N-α-methylhistamine for rat brain H3R in the presence of various compound concentrations in the buffer (50 mM Tris–HCl, pH 7.4). […] Following three washes, the membrane-bound radioactivity was measured on a Topcount (PerkinElmer) at 20°C. […] IC50 values were converted to Ki values using the Cheng-Prusoff equation. Each experiment was performed in duplicate and repeated three to six times. All data were analyzed by nonline arregression using GraphPad Prism version 4.0 software.

[4] = biological target: T4, hH4R (Homo sapiens, UniProt Q9H3N8); assay: CRE-driven luciferase activity in HEK-293 cells stably expressing hH4R; format: cell-based
T4 construct: expressed in transfected cells
Excerpt: Figure 3 The selectivity of ZEL-H16 for hH3R in intracellular Ca^2+ flux assay and CRE-luciferase transcription assay. A–C, Intracellular Ca^2+ flux or CRE-driven luciferase activity induced by ZEL-H16 in HEK-293 cells stably expressing hH1R (A), hH2R (B), or hH4R (C). […] The presented data points are the mean ±SE of triplicate values from a single experiment and are representative of three separate experiments. Statistical analysis between ZEL-H16 added or not added for each concentration point in the kinetic graph was done using a t-test (PRISM software). G, Relative expression of hH1R, hH2R, hH3R and hH4R on transfected HEK-293 cells by ELISA quantification for Flag-tagged cell-surface receptors (***p<0.001, compared to non-transfected HEK 293 cells).
as §1, with “Stable HEK-293 cells co-transfected with H3R and pCRE-Luc were seeded in a 48-well plate overnight and were grown to […] confluence. […] Luciferase” for “Luciferase”

[5] = biological target: T2, H3R; assay: H3R internalization, cell-surface ELISA in HEK-293 cells stably transfected with Flag-H3R; format: cell-based; conditions: 100 µM, 45 min at 37°C
Experimental: ELISA data are expressed as the percentage of receptors detected on the surface of agonist-untreated cells expressing H3R. Error bars represent the SEM for four replicates.
The cell surface expression of H3R was quantitatively assessed by ELISA and performed as described previously. Briefly, HEK-293 cells stably transfected with the pCMV-H3R construct were seeded in 48-well dishes coated with poly-L-lysine. […] Medium was aspirated and the cells were washed once with Tris-buffered saline (TBS). […] Cells were then incubated for 1 h with an alkaline phosphatase-conjugated monoclonal antibody directed against the Flag epitope and diluted 1∶1,000. Cells were washed 3 times, and antibody binding was visualized by adding 0.25 mL of an alkaline phosphatase substrate (Bio-Rad). Development was stopped by adding 0.1 mL of the substrate to a 96-well microtiter plate containing 0.1 mL of 0.4 M NaOH.

T1 sequence (Q9JI35 whole entry): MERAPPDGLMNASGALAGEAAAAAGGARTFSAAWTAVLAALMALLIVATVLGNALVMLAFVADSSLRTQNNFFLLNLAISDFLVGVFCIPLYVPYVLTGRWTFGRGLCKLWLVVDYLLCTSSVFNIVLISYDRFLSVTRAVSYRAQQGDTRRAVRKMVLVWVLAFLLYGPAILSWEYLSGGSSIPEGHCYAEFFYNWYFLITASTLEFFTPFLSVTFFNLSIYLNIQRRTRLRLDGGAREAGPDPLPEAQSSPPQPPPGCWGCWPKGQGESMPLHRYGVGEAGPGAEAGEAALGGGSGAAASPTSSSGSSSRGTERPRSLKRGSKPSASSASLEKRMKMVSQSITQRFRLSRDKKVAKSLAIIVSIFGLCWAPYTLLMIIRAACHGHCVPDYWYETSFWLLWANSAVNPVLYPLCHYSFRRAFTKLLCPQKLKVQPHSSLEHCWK

- efficacy of inhibition of the contractions of the guinea pig ileum ([1]; electrically induced twitch, mepyramine and famotidine present): 54.03±5.13%
- EC50 ([1]; inhibition of electrically induced twitch, read-out: pD 2 (converted)): 269 nM
- Emax ([2]; HEK293): 61 ± 3.2%
- Schild slope ([2]; agonist curves in the presence of 30 nM, 300 nM or 1 µM thioperamide): 1.140±0.168
- EC50 ([2]; inhibition of forskolin-induced luciferase activity, Mean ± SEM, n = 6): 4.36 ± 1.39 nM
- Ki ([3]; 10 nM [3H]N-α-methylhistamine, H3R/HEK-293 membranes, read-out: Ki): 2.07 ± 0.8 nM
- affinity for human H3R as compared to histamine ([3]; higher affinity than histamine): approximately 20 fold
- agonist activity: luciferase activity after stimulation ([4]; ZEL-H16 alone): no significant responses
- loss in the expression of the receptors on the cell surface (internalization) [5]: 50%
SMILES: c1ccc2c(c1)c(CCCN1CCCCC1)cn2CCCN1CCCCC1 [ZEL-H16]
- antagonist activity: influence on luciferase activity curves induced by histamine ([4]; ZEL-H16 added to histamine): did not significantly change the luciferase activity curves
